# In US9963461B2, “Phillygenin ibuprofen ester, preparation method therefor, and application thereof” (priority 2014, dated 2018):
# Marks after values point to notes of the source that are not given here.
# Assays:
# influenza virus = test: Impact of the drugs on the virus-induced cytopathy (MTT); format: cell-based; settings: influenza virus 100 TCID50, Vero cells, about the maximal non-cytotoxic concentration, 72 hours
# [1] = system: Coxsackie virus A16 (CoxA16); test: as above; format: cell-based; settings: CoxA16 100 TCID50, Vero cells, about the maximal non-cytotoxic concentration, 72 hours
# [2] = system: respiratory syncytial virus (RSV); test: as above; format: cell-based; settings: RSV 100 TCID50, Vero cells, about the maximal non-cytotoxic concentration, 72 hours
# [3] = system: coxsackie virus B3 (CVB3); test: as above; format: cell-based; settings: CVB3 100 TCID50, Vero cells, about the maximal non-cytotoxic concentration, 72 hours
# [4] = system: Herpes Simplex Virus type I (HSV-1); test: as above; format: cell-based; settings: HSV-I 100 TCID50, Vero cells, about the maximal non-cytotoxic concentration, 72 hours
# parainfluenza virus = test: as above; format: cell-based; settings: parainfluenza virus 100 TCID50, Vero cells, about the maximal non-cytotoxic concentration, 72 hours
# [5] = system: sweat secretion of rat paw part; test: Sweat secretion of rat paw part (coloring method); format: in vivo, Wistar rats; settings: for Animal number of sweat points of level +: + = sweat area below about 10%; for Animal number of sweat points of level ++: ++ = sweat area about 11-40%; for Animal number of sweat points of level +++: +++ = sweat area about 41-70%; for Animal number of sweat points of level ++++: ++++ = sweat area over 71%; for Animal number of sweat points of level −: − = no sweat point
# Description: This test was designed to observe the change of sweat secretion based on the mechanism that sweat gland is distributed on the rat paw pads, and iodine and starch can have purple reaction when encountered with sweat. In the test, 350 Wistar rats were selected, with equal male and female number, weighing 120-150 g. […] The rats were placed in a self-made rat fixation bag, with the double hind limbs exposed. The dirts on the right paw was gently scrubbed clean with the cotton swab dipped with anhydrous ethanol. Besides that subcutaneous injection was used for the pilocarpine solution, intragastric administration was used for all the other groups. […] When the test was complete, statistical process was carried out according to the rank-sum test with two-sample comparison, in order to compare the difference between the groups.
# Enterovirus EV71 = test: Impact of the drugs on the virus-induced cytopathy (MTT); format: cell-based; settings: EV71 100 TCID50, Vero cells, about the maximal non-cytotoxic concentration, 72 hours
# [6] = system: sweat gland epithelial cells at the rat toe part; test: Sweat secretion of rat paw part (tissue morphology observation method); format: in vivo, Wistar rats; settings: for Number of sweat glands of vacuole / Void fraction (%): rat toe part
# Description: This test was based on the mechanism that when rat sweat gland is excited, in addition to sweat secretion increase, the morphology of sweat gland epithelial cell is also changed. The number increase and expansion of empty cells of the sweat gland epithelial cells can be seen under the optical microscope. Such enlarged vacuole presents mitochondrial in sweat gland epithelial cells swelling, rupture, fusion and secretory vesicle enlargement under the electron microscope, and through the morphological observation of the sweat gland epithelial cell at the rat paw part, the secretory activity of the sweat gland can be known. In the test, 70 Wistar rats were selected, with equal male and female number, weighing 120-160 g. […] Besides that subcutaneous injection was used for the pilocarpine solution, intragastric administration was used for all the other groups.
# [7] = system: mice pain induced by acetic acid; test: Analgesic test, mice writhing induced by acetic acid; format: in vivo, Kunming mice; settings: for Writhing times: within 15 min after 0.7% acetic acid
# Protocol: 72 Kunming mice were randomly divided into 6 groups, with 12 mice for each group. (1) the blank normal control group (i.e. saline group, […]); (2) positive drug aspirin group (200 mg/kg); (3) ibuprofen group (300 mg/kg); (4) high dose group of phillygenin ibuprofen ester (300 mg/kg); (5) medium dose group of phillygenin ibuprofen ester (150 mg/kg); (6) low dose group of phillygenin ibuprofen ester (75 mg/kg). […] The number of mice writhings within 15 min after administration was recorded. The number of writhings was taken as the evaluation index to evaluate the analgesic effect.
# [8] = after coating B liquid for 1 minute, 2.5 mg/kg intragastric
# [9] = after coating B liquid for 1 minute, 5.0 mg/kg intragastric
# [10] = after coating B liquid for 1 minute, 10.0 mg/kg intragastric
# [11] = after coating B liquid for 5 minutes, 2.5 mg/kg intragastric
# [12] = after coating B liquid for 5 minutes, 5.0 mg/kg intragastric
# [13] = after coating B liquid for 5 minutes, 10.0 mg/kg intragastric
# [14] = after coating B liquid for 10 minutes, 2.5 mg/kg intragastric
# [15] = after coating B liquid for 10 minutes, 5.0 mg/kg intragastric
# [16] = after coating B liquid for 10 minutes, 10.0 mg/kg intragastric
# [17] = after coating B liquid for 15 minutes (Table 2-4), 2.5 mg/kg intragastric
# [18] = after coating B liquid for 15 minutes (Table 2-4), 5.0 mg/kg intragastric
# [19] = after coating B liquid for 15 minutes (Table 2-4), 10.0 mg/kg intragastric
# [20] = after coating B liquid for 15 minutes (Table 2-5), 2.5 mg/kg intragastric
# [21] = after coating B liquid for 15 minutes (Table 2-5), 5.0 mg/kg intragastric
# [22] = after coating B liquid for 15 minutes (Table 2-5), 10.0 mg/kg intragastric
compound,measurement,setting,value
"COc1ccc([C@H]2OCC3C2CO[C@H]3c2ccc(OC)c(OC(=O)C(C)c3ccc(CC(C)C)cc3)c2)cc1OC (stereo partly shown) [Phillygenin ibuprofen ester, phillygenin ibuprofen ester]",antiviral effective rate (ER %),influenza virus,99.95**^# %
same,antiviral effective rate (ER %),[1],75.89**^## %
same,antiviral effective rate (ER %),[2],87.74**^# %
same,antiviral effective rate (ER %),[3],75.83**^## %
same,antiviral effective rate (ER %),[4],99.80**^# %
same,antiviral effective rate (ER %),parainfluenza virus,100.00**^# %
same,effect on the sweat secretion of rat paw part vs control group,"[5]; 10 mg/kg, after coating B liquid for 5, 10, 15 and 20 min, P<0.05",obvious promoting effect
same,Animal number of sweat points of level +,[5]; [8],2
same,Animal number of sweat points of level ++,[5]; [8],3
same,Animal number of sweat points of level +++,[5]; [8],3
same,Animal number of sweat points of level ++++,[5]; [8],2
same,Animal number of sweat points of level −,[5]; [8],0
same,Animal number of sweat points of level +,[5]; [9],1
same,Animal number of sweat points of level ++,[5]; [9],2
same,Animal number of sweat points of level +++,[5]; [9],3
same,Animal number of sweat points of level ++++,[5]; [9],4
same,Animal number of sweat points of level −,[5]; [9],0
same,Animal number of sweat points of level +,[5]; [10],1
same,Animal number of sweat points of level ++,[5]; [10],3
same,Animal number of sweat points of level +++,[5]; [10],1
same,Animal number of sweat points of level ++++,[5]; [10],5
same,Animal number of sweat points of level −,[5]; [10],0
same,Animal number of sweat points of level +,[5]; [11],1
same,Animal number of sweat points of level ++,[5]; [11],3
same,Animal number of sweat points of level +++,[5]; [11],3
same,Animal number of sweat points of level ++++,[5]; [11],3
same,Animal number of sweat points of level −,[5]; [11],0
same,Animal number of sweat points of level +,[5]; [12],1
same,Animal number of sweat points of level ++,[5]; [12],4
same,Animal number of sweat points of level +++,[5]; [12],1
same,Animal number of sweat points of level ++++,[5]; [12],5
same,Animal number of sweat points of level −,[5]; [12],0
same,Animal number of sweat points of level +,[5]; [13],0
same,Animal number of sweat points of level ++,[5]; [13],3
same,Animal number of sweat points of level +++,[5]; [13],2
same,Animal number of sweat points of level ++++,[5]; [13],5
same,Animal number of sweat points of level −,[5]; [13],0
same,Animal number of sweat points of level +,[5]; [14],1
same,Animal number of sweat points of level ++,[5]; [14],2
same,Animal number of sweat points of level +++,[5]; [14],3
same,Animal number of sweat points of level ++++,[5]; [14],4
same,Animal number of sweat points of level −,[5]; [14],0
same,Animal number of sweat points of level +,[5]; [15],0
same,Animal number of sweat points of level ++,[5]; [15],3
same,Animal number of sweat points of level +++,[5]; [15],2
same,Animal number of sweat points of level ++++,[5]; [15],5
same,Animal number of sweat points of level −,[5]; [15],0
same,Animal number of sweat points of level +,[5]; [16],0
same,Animal number of sweat points of level ++,[5]; [16],2
same,Animal number of sweat points of level +++,[5]; [16],3
same,Animal number of sweat points of level ++++,[5]; [16],5
same,Animal number of sweat points of level −,[5]; [16],0
same,Animal number of sweat points of level +,[5]; [17],1
same,Animal number of sweat points of level ++,[5]; [17],3
same,Animal number of sweat points of level +++,[5]; [17],1
same,Animal number of sweat points of level ++++,[5]; [17],5
same,Animal number of sweat points of level −,[5]; [17],0
same,Animal number of sweat points of level +,[5]; [18],0
same,Animal number of sweat points of level ++,[5]; [18],2
same,Animal number of sweat points of level +++,[5]; [18],3
same,Animal number of sweat points of level ++++,[5]; [18],5
same,Animal number of sweat points of level −,[5]; [18],0
same,Animal number of sweat points of level +,[5]; [19],0
same,Animal number of sweat points of level ++,[5]; [19],1
same,Animal number of sweat points of level +++,[5]; [19],4
same,Animal number of sweat points of level ++++,[5]; [19],5
same,Animal number of sweat points of level −,[5]; [19],0
same,Animal number of sweat points of level +,[5]; [20],0
same,Animal number of sweat points of level ++,[5]; [20],2
same,Animal number of sweat points of level +++,[5]; [20],3
same,Animal number of sweat points of level ++++,[5]; [20],5
same,Animal number of sweat points of level −,[5]; [20],0
same,Animal number of sweat points of level +,[5]; [21],0
same,Animal number of sweat points of level ++,[5]; [21],1
same,Animal number of sweat points of level +++,[5]; [21],4
same,Animal number of sweat points of level ++++,[5]; [21],5
same,Animal number of sweat points of level −,[5]; [21],0
same,Animal number of sweat points of level +,[5]; [22],0
same,Animal number of sweat points of level ++,[5]; [22],0
same,Animal number of sweat points of level +++,[5]; [22],5
same,Animal number of sweat points of level ++++,[5]; [22],5
same,Animal number of sweat points of level −,[5]; [22],0
same,antiviral effective rate (ER %),Enterovirus EV71,99.81**^## %
same,effect on the sweat secretion of the rat toe part vs control group,"[6]; 5 and 10 mg/kg, p<0.01 or p<0.001",obvious promoting effect
same,Number of sweat glands of vacuole,[6]; 2.5 mg/kg intragastric,20
same,Void fraction (%),[6]; 2.5 mg/kg intragastric,8.47%
same,Number of sweat glands of vacuole,[6]; 5.0 mg/kg intragastric,42
same,Void fraction (%),[6]; 5.0 mg/kg intragastric,32.11***; ^# %
same,Number of sweat glands of vacuole,[6]; 10.0 mg/kg intragastric,75
same,Void fraction (%),[6]; 10.0 mg/kg intragastric,35.21***; ^## %
same,Writhing times,[7]; 75 mg/kg intragastric,15.8*
same,Writhing times,[7]; 150 mg/kg intragastric,6.5*
same,Writhing times,[7]; 300 mg/kg intragastric,3.9*^#
same,effect on mice pain induced by acetic acid vs blank control group,"[7]; low, medium and high dose groups (75, 150, 300 mg/kg), P<0.01",had analgesic effect
